{
  "source": "ChEMBL document CHEMBL1907987",
  "about": "“Human UDP-glucuronosyltransferases: metabolism, expression, and disease” (Annu Rev Pharmacol Toxicol, 2000)",
  "key": {"[1]": {"target": "T1, UDP-glucuronosyltransferase 2B7 (Homo sapiens, UniProt P16662)", "T1 sequence (P16662 whole entry)": "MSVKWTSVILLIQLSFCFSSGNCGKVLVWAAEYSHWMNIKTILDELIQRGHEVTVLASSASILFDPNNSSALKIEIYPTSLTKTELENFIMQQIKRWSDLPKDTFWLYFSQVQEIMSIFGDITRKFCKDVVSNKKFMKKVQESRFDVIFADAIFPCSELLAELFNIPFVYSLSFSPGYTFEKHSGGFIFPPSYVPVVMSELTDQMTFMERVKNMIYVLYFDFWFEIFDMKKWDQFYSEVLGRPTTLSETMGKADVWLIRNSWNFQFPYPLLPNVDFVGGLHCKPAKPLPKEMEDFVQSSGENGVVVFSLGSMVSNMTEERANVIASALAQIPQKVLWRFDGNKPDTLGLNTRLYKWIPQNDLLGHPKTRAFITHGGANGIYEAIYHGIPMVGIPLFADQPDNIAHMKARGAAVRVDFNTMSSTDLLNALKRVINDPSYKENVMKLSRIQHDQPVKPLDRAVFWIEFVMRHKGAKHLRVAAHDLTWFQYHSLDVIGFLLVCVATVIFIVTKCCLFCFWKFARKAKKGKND", "experiment": "Specific activity of expressed human recombinant UGT2B7H", "type": "ADME", "settings": "recombinant enzyme"}, "[2]": {"target": "T1, UDP-glucuronosyltransferase 2B7", "experiment": "Specific activity of expressed human recombinant UGT2B7Y", "type": "ADME", "settings": "recombinant enzyme"}},
  "note": "Values joined by “and” are separate entries in the source; they are usually repeats but may differ in a detail not shown here. Equal entries are not always repeated.",
  "data": [
    {"compound": "C=C1CC[C@@]2(O)[C@H]3Cc4ccc(O)c5c4[C@@]2(CCN3CC2CC2)[C@H]1O5", "values": [
      {"measurement": "Activity", "setting": "[1]", "result": "380 pm/min/mg and 412 pm/min/mg"},
      {"measurement": "Activity", "setting": "[2]", "result": 625, "unit": "pm/min/mg"}
    ]},
    {"compound": "CN1CC[C@]23c4c5ccc(O)c4O[C@H]2[C@@H](O)C=C[C@H]3[C@H]1C5", "note": "(stereo in doubt; (+)) [MORPHINE]", "values": [
      {"measurement": "Activity", "setting": "[2]", "result": 160, "unit": "pm/min/mg"}
    ]},
    {"compound": "CN1CC[C@]23c4c5ccc(O)c4O[C@H]2[C@@H](O)C=C[C@H]3[C@H]1C5", "note": "(stereo in doubt; (-)) [MORPHINE]", "values": [
      {"measurement": "Activity", "setting": "[1]", "result": "2536 pm/min/mg and 2968 pm/min/mg"},
      {"measurement": "Activity", "setting": "[2]", "result": 3719, "unit": "pm/min/mg"}
    ]},
    {"compound": "C[C@]12CC[C@@H](O)C[C@@H]1CC[C@@H]1[C@@H]2CC[C@]2(C)C(=O)CC[C@@H]12", "note": "(stereo in doubt; form 1) [ANDROSTERONE]", "values": [
      {"measurement": "Activity", "setting": "[1]", "result": 114, "unit": "pm/min/mg"},
      {"measurement": "Activity", "setting": "[2]", "result": 94, "unit": "pm/min/mg"}
    ]},
    {"compound": "CN1CC[C@]23c4c5ccc(O)c4O[C@H]2C(=O)CC[C@H]3[C@H]1C5", "note": "(stereo in doubt; form 1) [HYDROMORPHONE]", "values": [
      {"measurement": "Activity", "setting": "[1]", "result": "617 pm/min/mg and 856 pm/min/mg"},
      {"measurement": "Activity", "setting": "[2]", "result": 530, "unit": "pm/min/mg"}
    ]},
    {"compound": "CN1CC[C@]23c4c5ccc(O)c4O[C@H]2C(=O)CC[C@H]3[C@H]1C5", "note": "(stereo in doubt; form 2) [HYDROMORPHONE]", "values": [
      {"measurement": "Activity", "setting": "[2]", "result": 1550, "unit": "pm/min/mg"}
    ]},
    {"compound": "C[C@]12CC[C@H]3[C@@H](CCC4=CC(=O)CC[C@@]43C)[C@@H]1CC[C@@H]2O", "note": "(stereo in doubt; form 2) [TESTOSTERONE]", "values": [
      {"measurement": "Activity", "setting": "[1]", "result": 0, "unit": "pm/min/mg"},
      {"measurement": "Activity", "setting": "[2]", "result": 0, "unit": "pm/min/mg"}
    ]},
    {"compound": "CC1CC[C@H](C(C)C)[C@@H](O)C1", "note": "(stereo partly drawn) [(+)-MENTHOL]", "values": [
      {"measurement": "Activity", "setting": "[1]", "result": "255 pm/min/mg and 191 pm/min/mg"},
      {"measurement": "Activity", "setting": "[2]", "result": "247 pm/min/mg and 147 pm/min/mg"}
    ]},
    {"compound": "CC1(C)[C@H]2CC[C@]1(C)[C@H](O)C2", "note": "[(-)-BORNEOL]", "values": [
      {"measurement": "Activity", "setting": "[1]", "result": "388 pm/min/mg and 227 pm/min/mg"},
      {"measurement": "Activity", "setting": "[2]", "result": "357 pm/min/mg and 174 pm/min/mg"}
    ]},
    {"compound": "CO[C@]12CC[C@@]3(C[C@@H]1[C@](C)(O)C(C)(C)C)[C@H]1Cc4ccc(O)c5c4[C@@]3(CCN1CC1CC1)[C@H]2O5", "note": "[BUPRENORPHINE]", "values": [
      {"measurement": "Activity", "setting": "[1]", "result": "478 pm/min/mg and 280 pm/min/mg"}
    ]},
    {"compound": "COc1ccc2c3c1O[C@H]1[C@@H](O)C=C[C@H]4[C@@H](C2)N(C)CC[C@@]341", "note": "[CODEINE]", "values": [
      {"measurement": "Activity", "setting": "[1]", "result": "80 pm/min/mg and 54 pm/min/mg"}
    ]},
    {"compound": "C[C@]12CC[C@H]3[C@@H](CCC4=CC(=O)CC[C@@]43C)[C@@H]1CC[C@H]2O", "note": "[EPITESTOSTERONE]", "values": [
      {"measurement": "Activity", "setting": "[1]", "result": 360, "unit": "pm/min/mg"},
      {"measurement": "Activity", "setting": "[2]", "result": "468 pm/min/mg and 240 pm/min/mg"}
    ]},
    {"compound": "CN1CC[C@]23CCCC[C@H]2[C@H]1Cc1ccc(O)cc13", "note": "[LEVORPHANOL]", "values": [
      {"measurement": "Activity", "setting": "[2]", "result": "33 pm/min/mg and 25 pm/min/mg"}
    ]},
    {"compound": "Oc1ccc2c3c1O[C@H]1[C@@H](O)CC[C@@]4(O)[C@@H](C2)N(CC2CCC2)CC[C@]314", "note": "[NALBUPHINE]", "values": [
      {"measurement": "Activity", "setting": "[1]", "result": "758 pm/min/mg and 862 pm/min/mg"},
      {"measurement": "Activity", "setting": "[2]", "result": 1100, "unit": "pm/min/mg"}
    ]},
    {"compound": "C=CCN1CC[C@]23c4c5ccc(O)c4O[C@H]2[C@@H](O)C=C[C@H]3[C@H]1C5", "note": "[NALORPHINE]", "values": [
      {"measurement": "Activity", "setting": "[1]", "result": "1483 pm/min/mg and 1051 pm/min/mg"}
    ]},
    {"compound": "C=CCN1CC[C@]23c4c5ccc(O)c4O[C@H]2C(=O)CC[C@@]3(O)[C@H]1C5", "note": "[NALOXONE]", "values": [
      {"measurement": "Activity", "setting": "[1]", "result": "2908 pm/min/mg and 3462 pm/min/mg"}
    ]},
    {"compound": "O=C1CC[C@@]2(O)[C@H]3Cc4ccc(O)c5c4[C@@]2(CCN3CC2CC2)[C@H]1O5", "note": "[NALTREXONE]", "values": [
      {"measurement": "Activity", "setting": "[1]", "result": "670 pm/min/mg and 662 pm/min/mg"}
    ]},
    {"compound": "Oc1ccc2c3c1O[C@H]1c4oc5ccccc5c4C[C@@]4(O)[C@@H](C2)N(CC2CC2)CC[C@]314", "note": "[NALTRIBEN]", "values": [
      {"measurement": "Activity", "setting": "[1]", "result": 0, "unit": "pm/min/mg"},
      {"measurement": "Activity", "setting": "[2]", "result": "150 pm/min/mg and 97 pm/min/mg"}
    ]},
    {"compound": "Oc1ccc2c3c1O[C@H]1c4[nH]c5ccccc5c4C[C@@]4(O)[C@@H](C2)N(CC2CC2)CC[C@]314", "note": "[NALTRINDOLE]", "values": [
      {"measurement": "Activity", "setting": "[1]", "result": "349 pm/min/mg and 456 pm/min/mg"},
      {"measurement": "Activity", "setting": "[2]", "result": 453, "unit": "pm/min/mg"}
    ]},
    {"compound": "COc1ccc2c3c1O[C@H]1[C@@H](O)C=C[C@H]4[C@@H](C2)NCC[C@@]341", "note": "[NORCODEINE]", "values": [
      {"measurement": "Activity", "setting": "[2]", "result": "29 pm/min/mg and 24 pm/min/mg"}
    ]},
    {"compound": "Oc1ccc2c3c1O[C@H]1[C@@H](O)C=C[C@H]4[C@@H](C2)NCC[C@@]341", "note": "[NORMORPHINE]", "values": [
      {"measurement": "Activity", "setting": "[2]", "result": 80, "unit": "pm/min/mg"}
    ]},
    {"compound": "CN1CC[C@]23c4c5ccc(O)c4O[C@H]2C(=O)CC[C@@]3(O)[C@H]1C5", "note": "[OXYMORPHONE]", "values": [
      {"measurement": "Activity", "setting": "[1]", "result": "2944 pm/min/mg and 3139 pm/min/mg"},
      {"measurement": "Activity", "setting": "[2]", "result": 2300, "unit": "pm/min/mg"}
    ]}
  ]
}
